Legend:
[1] = Normal cell cytotoxicity in CD34+ HSC, CellTiter-Glo; assay type: cell-based; settings: human, CD34+ hematopoietic stem cells (HSCs), read-out: In vitro cell cytotoxicity in CD34+ HSC CC50
Experimental: The CD34^+ hematopoietic stem cells (HSCs) were purchased from […]™ (#70002.3). The cells (2×10^4 cells per well) were cultured in StemSpan™ SFEM II medium supplemented with StemSpan™ CD34+ Expansion Supplement (#02691) in a 6-well plate at 37° C. for 7 days. On day 3 or 4, an equal volume of fresh complete medium was added into the cell culture. On day 7, the cells (4×10^4 cells per well) were seeded in a 96-well white plate and rested for 24 hours in the same condition.
After 72 hours, the cell viability was measured using CellTiter-Glo Luminescent Cell Viability Assay (Promega, #G7573) according to the manufacture's instruction. The signal was detected using an EnVision Xcite multilabel reader and data were analyzed using GraphPad Prism 8 software.

hSTING-WT (R232) = target: T1, hSTING-WT (R232) (Homo sapiens, UniProt Q86WV6, H232R); test: STING activation, THP1-Dual IRF3 reporter assay, hSTING-R232 cells; assay type: cell-based; settings: IRF3 luciferase reporter, 24 hours, read-out: STING activity using hSTING-R232 cells EC50
T1 construct: host or cells: THP1-Dual cells (human monocytes) with knocked-in hSTING R232
T1 sequence (Q86WV6 whole entry H232R): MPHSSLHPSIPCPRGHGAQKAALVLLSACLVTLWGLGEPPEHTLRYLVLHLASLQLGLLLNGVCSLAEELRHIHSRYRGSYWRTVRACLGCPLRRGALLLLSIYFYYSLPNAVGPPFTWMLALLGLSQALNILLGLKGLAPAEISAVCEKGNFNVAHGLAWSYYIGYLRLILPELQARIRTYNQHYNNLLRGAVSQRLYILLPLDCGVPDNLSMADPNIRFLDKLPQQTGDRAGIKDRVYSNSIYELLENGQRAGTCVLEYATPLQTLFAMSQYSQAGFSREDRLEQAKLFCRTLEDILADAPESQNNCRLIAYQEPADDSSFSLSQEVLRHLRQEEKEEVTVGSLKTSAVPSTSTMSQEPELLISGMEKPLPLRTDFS
Experimental: (§1) To assess potency of STING agonist compounds described herein, THP1-Dual™ Cells (NF—KB-SEAP and IRF-Lucia luciferase reporter monocytes, InvivoGen) were used. The reporter cells were knocked-in either of hSTING-WT (R232, #thpd-r232), HAQ variant (#thpd-nfis), or H232 variant (#thpd-h232). All cells were cultured at 37° C. in a humidified incubator at 5% CO2 and maintained in RPMI 1640 medium (Gibco, #22400097) supplemented with 10% heat-inactivated FBS and 1×Pen-Strep (Gibco, #15140122). To measure STING agonist-mediated IRF3 activity, the cells (9.0×10^4 cells per well) were seeded in a flat-bottomed 96-well plate. The next day, the cells were treated with compounds in a serial dilution for 24 hours. Subsequently, 20 μL of the cell culture supernatant and 50 μL of the QUANTI-Luc™ reagent (InvivoGen, #rep-qlc) were mixed in a 96-well white plate and then, luciferase activity was measured using an EnVision Xcite multilabel reader. The data were analyzed using Prism8 software (4-parameter).
(§2) The potency of STING agonist compounds was evaluated by the activation of Type I Interferon pathway using THP-1 IRF3 reporter assay.

human STING = target: T2, human STING (Homo sapiens, UniProt Q86WV6, H232R); test: Direct STING binding, HUMAN STING WT BINDING KIT (Cisbio); settings: direct binding to human STING WT protein in vitro; read-out: Binding potency EC50
T2 construct: purchased Cisbio 64BDSTGPEG
T2 sequence (Q86WV6 whole entry H232R): as above
Description: Additionally, for analysis of direct binding potency of STING agonist compounds described herein to human STING, HUMAN STING WT BINDING KIT (Cisbio, #64BDSTGPEG) was used according to the manufacture's instruction.

hSTING HAQ variant = target: T3, hSTING HAQ variant (Homo sapiens, UniProt Q86WV6, G230A/H232R/R293Q/R71H); test: STING activation, THP1-Dual IRF3 reporter assay, hSTING-HAQ cells; assay type: cell-based; settings: IRF3 luciferase reporter, 24 hours, read-out: STING activity using hSTING-HAQ cells, HAQ EC50
T3 construct: host or cells: THP1-Dual cells (human monocytes)
T3 sequence (Q86WV6 whole entry R71H/G230A/H232R/R293Q): as the sequence (Q86WV6 whole entry H232R) above, with R71H, G230A, R293Q counted along it
Experimental: as §1, §2

[2] = Normal cell cytotoxicity in PBMCs, CellTiter-Glo; assay type: cell-based; settings: human, read-out: In vitro cell cytotoxicity in PBMCs CC50
Experimental: PBMCs were also purchased from […]™ (#700025.2). The cells (8.0×10^4 cells per well) were seeded in a flat-bottomed 96-well plate in RPMI 1640 medium (Gibco, #22400097) with 10% heat-inactivated FBS and 1× Antibiotic-Antimycotic (Gibco, #15240062) and rested for 24 hours at 37° C. […] After 72 hours, the cell viability was measured using CellTiter-Glo Luminescent Cell Viability Assay (Promega, #G7573) according to the manufacture's instruction. The signal was detected using an EnVision Xcite multilabel reader and data were analyzed using GraphPad Prism 8 software.
To verify the effect of the STING agonist compounds in normal cell cytotoxicity, the PBMCs were treated with the STING agonist compounds for 3 days and measured the percentage of cell death.

hSTING H232 variant = target: T4, hSTING H232 variant (Homo sapiens, UniProt Q86WV6); test: STING activation, THP1-Dual IRF3 reporter assay, hSTING-H232 cells; assay type: cell-based; settings: IRF3 luciferase reporter, 24 hours, read-out: STING activity using hSTING-H232 cells, H232 EC50
T4 construct: host or cells: THP1-Dual cells (human monocytes) with knocked-in hSTING H232
Experimental: as §1, §2

[3] = Plasma pharmacokinetics in naive Balb/C mouse, LC-MS/MS; assay type: in vivo; settings: 1.5 mg/kg single IV; for AUC∞, norm / Cmax, norm: n = 3, dose-normalised; for AUC(0-inf) / AUC(0-t) / C0 / Cmax / clearance / half-life / Vd: female; for AUC(0-inf) / AUC(0-t) / C0 / Cmax: n = 3, plasma; for clearance / half-life / Vd: plasma; for clearance / half-life: n = 3; for Vd: n = 3, read-out: VSS
Experimental: For in vivo evaluation of STING agonist compounds described herein in naïve Balb/C mouse, single doses of STING agonist compounds were given at 1.5 mg/kg intravenously into female BALB/c mice (Orientbio, South Korea) at 6-8 weeks of age. Pharmacokinetics were studied following injection of the STING agonist compounds into Balb/C mice. Plasma samples were taken at various time points and stored frozen for analysis. The plasma concentrations of the STING agonist compounds at the indicated time points were measured using a LC-MS/MS analysis method.
Briefly, 250 μL of acetonitrile (ACN) solution was added in both 50 μL of sample and 50 μL of plasma containing 10 nM Dextromethorphan (internal standard), and the solutions were mixed vigorously using a vortex mixer for 5 minutes. The samples were then spun down at 14,000 rpm, 4° C. for 5 minutes. 100 μL of supernatants were combined with 100 μL of mobile phase A (0.1% formic acid in water with 5% ACN) and mixed thoroughly. The samples were measured for the STING agonist compounds using a LC-MS/MS (Nexera LC40 (SHIMADZU) and QTRAP4500 (SCIEX)).

| Structure (SMILES) | CC50 at 72 h [1] [nM] | EC50 (hSTING-WT (R232)) [nM] | EC50 (human STING) [nM] | EC50 (hSTING HAQ variant) [nM] | CC50 at 72 h [2] [nM] | EC50 (hSTING H232 variant) [nM] | AUC∞, norm [3] [kg·h/L] | Cmax, norm [3] [kg/L] | AUC(0-inf) [3] [ng·h/mL] | AUC(0-t) [3] [ng·h/mL] | C0 [3] [ng/mL] | Cmax [3] [ng/mL] | clearance [3] [mL/min/kg] | half-life [3] [min] | Vd [3] [L/kg] |
| --- | --- | --- | --- | --- | --- | --- | --- | --- | --- | --- | --- | --- | --- | --- | --- |
| CCn1nc(C)cc1C(=O)Nc1nc2cc(C(N)=O)cc(OC/C=C/Cn3cc(NC(=O)OCc4ccc(O[C@@H]5O[C@H](C(=O)O)[C@@H](O)[C@H](O)[C@H]5O)c(C(=O)NCCOCCOCCO[C@@H]5O[C@H](C(=O)O)[C@@H](O)[C@H](O)[C@H]5O)c4)cn3)c2n1C/C=C/Cn1c(NC(=O)c2cc(C)nn2CC)nc2cc(C(N)=O)cc(OCCCC(=O)O)c21 [Compound 396] | 156 | 240 | – | – | – | – | – | – | – | – | – | – | – | – | – |
| CCn1nc(C)cc1C(=O)Nc1nc2cc(C(N)=O)cc(NC/C=C/Cn3cc(N(CCC(=O)O)C(=O)OCc4ccc(O[C@@H]5O[C@H](C(=O)O)[C@@H](O)[C@H](O)[C@H]5O)c(C(=O)NCCOCCOCCN(C)C)c4)cn3)c2n1C/C=C/Cn1c(NC(=O)c2cc(C)nn2CC)nc2cc(C(N)=O)cc(OC)c21 [Compound 363] | 86.1 | 403 | 0.8 | – | – | – | – | – | – | – | – | – | – | – | – |
| CCn1nc(C)cc1C(=O)Nc1nc2cc(C(N)=O)cc(OC)c2n1C/C=C/Cn1c(NC(=O)c2cc(C)nn2CC)nc2cc(C(N)=O)cc(OC/C=C/CN3CCCN3C(=O)OCc3ccc(O[C@@H]4O[C@H](C(=O)O)[C@@H](O)[C@H](O)[C@H]4O)c(C(=O)NCCOCCOCCO)c3)c21 [Compound 422] | 32.1 | 45 | 0.92 | 477 | 207 | 119 | – | – | – | – | – | – | – | – | – |
| CCn1nc(C)cc1C(=O)Nc1nc2cc(C(N)=O)cc(OC)c2n1C/C=C/Cn1c(NC(=O)c2cc(C)nn2CC)nc2cc(C(N)=O)cc(OC/C=C/CN3CCCN3C(=O)OCc3ccc(O[C@@H]4O[C@H](C(=O)O)[C@@H](O)[C@H](O)[C@H]4O)c(C(=O)NCCOCCOCCN(C)C)c3)c21 [Compound 424] | 30.6 | 72 | 1.6 | 517 | 147 | 117 | – | – | – | – | – | – | – | – | – |
| CCn1nc(C)cc1C(=O)Nc1nc2cc(C(N)=O)cc(OC/C=C/Cn3cc(NC(=O)OCc4ccc(O[C@@H]5O[C@H](C(=O)O)[C@@H](O)[C@H](O)[C@H]5O)c(C(=O)NCCOCCOCCO)c4)cn3)c2n1C/C=C/Cn1c(NC(=O)c2cc(C)nn2CC)nc2cc(C(N)=O)cc(OCCCC(=O)O)c21 [Compound 316] | – | 88.2 | – | 400 | 207 | 251 | – | – | – | – | – | – | – | – | – |
| CCn1nc(C)cc1C(=O)Nc1nc2cc(C(N)=O)cc(OC)c2n1C/C=C/Cn1c(NC(=O)c2cc(C)nn2CC)nc2cc(C(N)=O)cc(OC/C=C/CN3CCN(C(=O)OCc4ccc(O[C@@H]5O[C@H](C(=O)O)[C@@H](O)[C@H](O)[C@H]5O)c(C(=O)NCCOCCOCCN(C)C)c4)CC3=O)c21 [Compound 309] | – | 31.2 | 0.4 | 52 | 44.3 | 70.4 | – | – | – | – | – | – | – | – | – |
| CCn1nc(C)cc1C(=O)Nc1nc2cc(C(N)=O)cc(OC)c2n1C/C=C/Cn1c(NC(=O)c2cc(C)nn2CC)nc2cc(C(N)=O)cc(OC/C=C/CN3CCN(C(=O)OCc4ccc(O[C@@H]5O[C@H](C(=O)O)[C@@H](O)[C@H](O)[C@H]5O)c(C(=O)NCCOCCOCCO)c4)CC3=O)c21 [Compound 302] | 21.5 | 46.7 | 0.38 | 83.5 | 59.2 | 96.6 | – | – | – | – | – | – | – | – | – |
| CCc1nc(C)oc1C(=O)Nc1nc2cc(C(N)=O)cnc2n1C/C=C/Cn1c(NC(=O)c2oc(C)nc2CC)nc2cc(C(N)=O)cc(OCCCO)c21 [Comparative #2, reference compound] | – | 213 | 0.13 | 213 | 6.28 | 36.6 | 0.05 ± 0.01 | 0.16 ± 0.02 | 80 ± 10 | 70 ± 10 | 380 ± 50 | 240 ± 30 | 328 | 12 ± 1.8 | 5.1 ± 1.01 |
| CCn1nc(C)cc1C(=O)Nc1nc2cc(C(N)=O)cc(OC)c2n1C/C=C/Cn1c(NC(=O)c2cc(C)nn2CC)nc2cc(C(N)=O)cc(OC/C=C/Cn3cc(NC(=O)OCc4ccc(O[C@@H]5O[C@H](C(=O)O)[C@@H](O)[C@H](O)[C@H]5O)c(C(=O)NCCC(=O)O)c4)cn3)c21 [Compound 281] | – | 39.2 | – | 108 | 127 | 96.7 | 9.89 ± 0.90 | 4.11 ± 0.28 | 14800 ± 1340 | 14800 ± 1350 | 6500 ± 490 | 6160 ± 420 | 1.67 | 168 ± 16.2 | 0.32 ± 0.03 |
| CCn1nc(C)cc1C(=O)Nc1nc2cc(C(N)=O)cc(OC)c2n1C/C=C/Cn1c(NC(=O)c2cc(C)nn2CC)nc2cc(C(N)=O)cc(OCCCN3CCOCC3)c21 [Comparative #1, reference compound] | 2.1 | – | – | – | 3.34 | – | 0.66 ± 0.07 | 1.94 ± 0.30 | 990 ± 100 | 980 ± 100 | 4630 ± 860 | 2910 ± 450 | 25.5 | 54.6 ± 2.4 | 0.7 ± 0.15 |

Source: patent publication US20260167659A1, “STING AGONISTS” (LIGACHEM BIOSCIENCES INC., priority 2022, published 2026)
